Experimental data taken from patent US9193714B2, “Fluorinated estrogen receptor modulators and uses thereof” (priority 2011, dated 2015).
Read-outs that look alike come from different tables or passages of the source.

Legend:
[1] = system: MCF-7 cells; assay: Breast Cancer Cell Viability Assay (MCF7 Viability Assay); type: cell-based; conditions: for IC50: Homo sapiens, MCF7, 120 h, read-out: MCF7 Viability Assay IC50
Procedure: MCF-7 cells were adjusted to a concentration of 20,000 cells per mL in RPMI containing 10% FBS and 20 mM HEPES. 16 microliters of the cell suspension (320 cells) was added to each well of a 384 well plate, and the cells were incubated overnight to allow the cells to adhere. The following day an eleven point, serial semilog dilution of each compound was added to the cells in 16 μL at a final concentration ranging from 0.3-0.000003 μM. After 5 days' compound exposure, 16 μL of CellTiter-GLo (Promega, Madison Wis.) was added to the cells the relative luminescence units (RLUs) of each well was determined. CellTiter-Glo added to 32 μL of medium without cells was used to obtain a background value. The Percent viability of each sample was determined as follows: (RLU sample-RLU background/RLU untreated cells-RLU background)×100=% viability.

[2] = molecular target: T1, ER-α (Homo sapiens, UniProt P03372); assay: Breast Cancer Cell ER-α in Cell Western Assay (SP1); type: cell-based; conditions: MCF7, read-out: ER In-Cell Western Assay (SP1); Max Response
T1 construct: endogenous in cells; host or cells: MCF-7
T1 sequence (P03372 whole entry): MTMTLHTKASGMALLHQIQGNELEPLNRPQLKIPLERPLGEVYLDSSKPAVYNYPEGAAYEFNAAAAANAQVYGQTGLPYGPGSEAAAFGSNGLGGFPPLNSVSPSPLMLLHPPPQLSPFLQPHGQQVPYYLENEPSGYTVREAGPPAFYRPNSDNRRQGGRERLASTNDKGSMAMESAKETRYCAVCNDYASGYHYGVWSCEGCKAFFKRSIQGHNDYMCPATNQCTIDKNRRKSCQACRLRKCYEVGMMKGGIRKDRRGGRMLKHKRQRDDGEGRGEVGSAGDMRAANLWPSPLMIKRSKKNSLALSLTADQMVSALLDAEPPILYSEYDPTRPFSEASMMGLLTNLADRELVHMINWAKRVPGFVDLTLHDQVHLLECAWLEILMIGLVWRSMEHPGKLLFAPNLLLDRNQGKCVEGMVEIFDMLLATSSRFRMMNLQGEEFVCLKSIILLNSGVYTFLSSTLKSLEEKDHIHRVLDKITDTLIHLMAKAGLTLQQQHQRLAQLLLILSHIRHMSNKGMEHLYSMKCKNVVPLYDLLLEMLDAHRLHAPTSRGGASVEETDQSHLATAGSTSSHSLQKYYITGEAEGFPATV
Procedure: MCF-7 cells were adjusted to a concentration of 200,000 cells per mL in RPMI containing 10% charcoal-stripped FBS and 20 mM HEPES. 16 microliters of the cell suspension (3200 cells) was added to each well of a poly-D-lysine 384 well plate, and the cells were incubated overnight to allow the cells to adhere. The following day an eleven point, serial semilog dilution of each compound was added to the cells in 16 μL at a final concentration ranging from 0.3-0.000003 μM. At 4 or 24 hr post compound addition, the cells were fixed (10% formalin in PBS) for 20 minutes. Cells were permeablized in PBS 0.1% Triton and blocked with LICOR blocking buffer (50 μl/well, 90′). The wells were then incubated overnight at 4° C. with SP1 rabbit monoclonal Ab (Thermo Scientific) diluted 1:1000 in LICOR blocking buffer/0.1% Tween-20. Wells which were treated with blocking buffer with Tween but no antibody were used as a background control. Wells were washed with 0.1% Tween-20/PBS and then incubated in goat anti-rabbit IRDye™ 800 CW (LICOR Inc.; 1:1000) and DRAQ5 DNA dye (1:2000 for 2 mM stock) diluted in LICOR blocking buffer containing 0.1% Tween-20 and 0.01% SDS for 60 minutes. Cells were washed (50 μl/well, 5′ each) in 0.1% Tween-20/PBS. Plates were scanned on a LICOR Odyssey infrared imaging system. Integrated intensities in the 800 nm channel and 700 nm channel were measured to determine levels of ER and DNA respectively. Percent ER levels were determined as follows: (Integrated intensity 800 nm sample/integrated intensity 700 nm sample)/(Integrated intensity 800 nm untreated cells/integrated intensity 700 nm untreated cells)×100=% ER levels.

[3] = MCF-7 cells, 5 days' compound exposure, CellTiter-Glo

| SMILES | IC50 [1, 3] [nM] | MCF7 Viability Assay Max Response [1, 3] | Emax [2] [%] | IC50 [1] [nM] |
| --- | --- | --- | --- | --- |
| CCN(CCF)CCOc1ccc(C2Oc3ccc(O)cc3C(C)=C2c2cccc(O)c2)cc1 (stereo not shown) [Example 23, 2-(4-(2-(Ethyl(2-fluoroethyl)amino)ethoxy)phenyl)-3-(3-hydroxyphenyl)-4-methyl-2H-chromen-6-ol] | > 1 | ++ (a single % value ≧ 50%) | < 60 |  |
| CC1=C(c2ccc(F)c(O)c2)C(c2ccc(OC[C@H](C)N3CC[C@@H](CF)C3)cc2)Oc2ccc(O)cc21 (stereo partly drawn) [Example 11, 3-(4-Fluoro-3-hydroxyphenyl)-2-(4-((S)-2-((R)-3-(fluoromethyl)pyrrolidin-1-yl)propoxy)phenyl)-4-methyl-2H-chromen-6-ol] | < 1 | ++ (a single % value ≧ 50%) | > 85 |  |
| CC1=C(c2cccc(O)c2)C(c2ccc(OCCN3CCC(CF)CC3)cc2)Oc2ccc(O)cc21 (stereo not shown) [Example 19, 2-(4-(2-(4-(Fluoromethyl)piperidin-1-yl)ethoxy)phenyl)-3-(3-hydroxyphenyl)-4-methyl-2H-chromen-6-ol] |  |  | 60 to 85 |  |
| CC1=C(c2ccc(Cl)cc2)C(c2ccc(OC[C@H](C)N3CC[C@@H](CF)C3)cc2)Oc2ccc(O)cc21 (stereo partly drawn) [Example 15, 3-(4-Chlorophenyl)-2-(4-((S)-2-((R)-3-(fluoromethyl)pyrrolidin-1-yl)propoxy)phenyl)-4-methyl-2H-chromen-6-ol] | > 1 | ++ (a single % value ≧ 50%) | > 85 |  |
| CC1=C(c2cccc(O)c2)C(c2ccc(OCCN(C)CCCF)cc2)Oc2ccc(O)cc21 (stereo not shown) [Example 22, 2-(4-(2-((3-Fluoropropyl)(methyl)amino)ethoxy)phenyl)-3-(3-hydroxyphenyl)-4-methyl-2H-chromen-6-ol] | < 1 | + (a single % value < 50%) | < 60 |  |
| CC1=C(c2ccc(F)cc2)C(c2ccc(OC[C@H](C)N3CC[C@@H](CF)C3)cc2)Oc2ccc(O)cc21 (stereo partly shown) [Example 27] | > 1 | ++ (a single % value ≧ 50%) | > 85 |  |
| Cc1c(-c2ccc(O)cc2)n(Cc2ccc(OCCN3CC[C@@H](CF)C3)cc2)c2ccc(O)cc12 [Example 28, (R)-1-(4-(2-(3-(Fluoromethyl)pyrrolidin-1-yl)ethoxy)benzyl)-2-(4-hydroxyphenyl)-3-methyl-1H-indol-5-ol] | < 1 | ++ (a single % value ≧ 50%) | > 85 |  |
| CC1=C(c2cccc(O)c2)C(c2ccc(OCCN3CC(CF)C3)cc2)Oc2ccc(O)cc21 (stereo not shown) [Example 1, 2-(4-(2-(3-(Fluoromethyl)azetidin-1-yl)ethoxy)phenyl)-3-(3-hydroxyphenyl)-4-methyl-2H-chromen-6-ol] |  | ++ (a single % value ≧ 50%) | > 85 | < 1 |
| CC1=C(c2cc(O)cc(F)c2)C(c2ccc(OC[C@H](C)N3CC[C@@H](CF)C3)cc2)Oc2ccc(O)cc21 (stereo partly drawn) [Example 12, 3-(3-Fluoro-5-hydroxyphenyl)-2-(4-((S)-2-((R)-3-(fluoromethyl)pyrrolidin-1-yl)propoxy)phenyl)-4-methyl-2H-chromen-6-ol] | < 1 | ++ (a single % value ≧ 50%) | > 85 |  |
| CC1=C(c2cccc(O)c2)C(c2ccc(OCCN3CC[C@@H](CF)C3)cc2)Oc2ccc(O)cc21 (stereo partly drawn) [Example 2, 2-(4-(2-((R)-3-(Fluoromethyl)pyrrolidin-1-yl)ethoxy)phenyl)-3-(3-hydroxyphenyl)-4-methyl-2H-chromen-6-ol] |  | ++ (a single % value ≧ 50%) | > 85 | < 1 |
| CC1=C(c2cccc(O)c2)C(c2ccc(OCCN3CCC[C@H]3CF)cc2)Oc2ccc(O)cc21 (stereo partly drawn) [Example 18, 2-(4-(2-((S)-2-(Fluoromethyl)pyrrolidin-1-yl)ethoxy)phenyl)-3-(3-hydroxyphenyl)-4-methyl-2H-chromen-6-ol] |  | ++ (a single % value ≧ 50%) | 60 to 85 | > 1 |
